“Also recorded” adds a separate entry of the source. Like-named read-outs stand apart in the source and are kept apart here.
Key:
CNV rat model = system: CNV rat model; design: method as in PMID 29201457; settings: oral administration; cited from earlier work
[1] = system: participants with advanced cancer; design: method as in PMID 33707933; settings: US participants with advanced cancer, once daily; cited from earlier work
[2] = Pharmacokinetics of vorolanib after single and multiple dosing; format: in vivo, human; settings: for half-life / Cmax / Tmax / AUC / Vd/F / AUC(0-t): human, plasma, oral; for Tmax: median (range); for Vd/F: read-out: Vz/F (apparent volume of distribution); for AUC(0-t): read-out: AUC0-24h
Experimental: In the initial PK evaluation after a single dose, blood samples from participants in the 25 mg group were collected predose (−0.5 h) and at 0.5, 1, 2, 3, 4, 6, 8, 12, 16, 24, 36, and 48 h post-dose; blood samples from participants in the 50 mg and 75 mg groups were collected predose (−0.5 h) and at 0.5, 1, 2, 3, 4, 6, 8, 12, 16, 24, 36, 48, and 72 h post-dose. During continuous dosing, blood in the 50 mg group was obtained on Day 7, Day 14 and Day 21 predose and on Day 30 predose and at 0.5, 1, 2, 3, 4, 6, 8, 12, 16 and 24 h post-dose, while blood in the 75 mg group was obtained on Day 7, Day 14 and Day 21 predose and on Day 30 predose and at 0.5, 1, 2, 3, 4, 6, 8, 12, 16, 24, 36, 48, and 72 h post-dose. The multiple dose data for 25 mg were not collected.
All participants moved from single dosing to multiple daily dosing.

[3] = continuous dose administration, 50 to 75 mg
[4] = multiple doses 50 mg daily, n = 8, arithmetic mean (%CV)
[5] = multiple doses 75 mg daily, n = 8, arithmetic mean (%CV)

In the case of Cc1[nH]c(/C=C2\C(=O)Nc3ccc(F)cc32)c(C)c1C(=O)N[C@H]1CCN(C(=O)N(C)C)C1 [vorolanib, Vorolanib], the “CNV lesion area and pathological neovascularization” value (CNV rat model) is given as “strongly repressed CNV; also recorded: reduced the CNV lesion area and pathological neovascularization”, the “Recommended dose of vorolanib monotherapy” value [1] is given as 400 mg and the Accumulation [2, 3] is given as “no obvious accumulation”. For the same molecule, the “Time to steady-state concentration” value [2, 3] was 4 days, the “Dose dependence of maximum blood concentration and area under the curve” value ([2]; doses of 25–50 mg after a single dose) was “increased linearly in a dose-dependent manner” and the half-life ([2]; 25 mg, single dose 25 mg, n = 8, arithmetic mean (%CV)) was 5.9 h. The Cmax ([2]; 25 mg, single dose 25 mg, n = 8, arithmetic mean (%CV), read-out: Cmax) was 140 ng/mL, the Tmax ([2]; 25 mg, single dose 25 mg, n = 8, read-out: Tmax) was 3.03 h and the half-life ([2]; 50 mg, multiple doses 50 mg daily, n = 8, arithmetic mean (%CV)) was 4.9 h. For the same molecule, the Cmax ([2]; 50 mg, multiple doses 50 mg daily, n = 8, arithmetic mean (%CV), read-out: Cmax,ss) was 246 ng/mL, the Tmax ([2]; 50 mg, multiple doses 50 mg daily, n = 8, read-out: Tmax,ss) was 5.03 h and the half-life ([2]; 50 mg, single dose 50 mg, n = 8, arithmetic mean (%CV)) was 10.7 h. It also gave a Cmax ([2]; 50 mg, single dose 50 mg, n = 8, arithmetic mean (%CV), read-out: Cmax) of 201 ng/mL, a Tmax ([2]; 50 mg, single dose 50 mg, n = 8, read-out: Tmax) of 6 h and a half-life ([2]; 75 mg, multiple doses 75 mg daily, n = 8, arithmetic mean (%CV)) of 7.3 h. For the same molecule, the Cmax ([2]; 75 mg, multiple doses 75 mg daily, n = 8, arithmetic mean (%CV), read-out: Cmax,ss) was 269 ng/mL, the Tmax ([2]; 75 mg, multiple doses 75 mg daily, n = 8, read-out: Tmax,ss) was 4 h and the half-life ([2]; 75 mg, single dose 75 mg, n = 8, arithmetic mean (%CV)) was 10.3 h. The Cmax ([2]; 75 mg, single dose 75 mg, n = 8, arithmetic mean (%CV), read-out: Cmax) was 237 ng/mL, the Tmax ([2]; 75 mg, single dose 75 mg, n = 8, read-out: Tmax) was 4 h and the half-life ([2]; single dosing, 25–75 mg cohorts, approximately) was 5.9 to 10.7 h. It also gave an AUC [2, 4] of 2180 ng·h/mL, a Vd/F [2, 4] of 180 L and an AUC [2, 5] of 1950 ng·h/mL. It also gave a Vd/F [2, 5] of 436 L, an AUC(0-t) ([2]; single dose 25 mg, n = 8, arithmetic mean (%CV)) of 1010 ng·h/mL and an AUC(0-t) ([2]; single dose 50 mg, n = 8, arithmetic mean (%CV)) of 1730 ng·h/mL. The AUC(0-t) ([2]; single dose 75 mg, n = 8, arithmetic mean (%CV)) was 1700 ng·h/mL, the “CLss/F (apparent oral clearance)” value [2, 4] was 26.2 (40.1) L/h and the “Rac (accumulation ratio based on AUCss)” value [2, 4] was 1.30 (31.3). For the same molecule, the “CLss/F (apparent oral clearance)” value [2, 5] was 42.4 (32.7) L/h, the “Rac (accumulation ratio based on AUCss)” value [2, 5] was 1.20 (36.2) and the “AUC in Chinese people versus Americans” value ([2]; preliminary PK results, unpublished data) was “relatively higher AUC in Chinese people than in Americans”.
